In patent US11208412B2 (DAEGU-GYEONGBUK MEDICAL INNOVATION FOUNDATION, priority 2017, dated 2021):

What was measured:
Experiment in all cases: Kinase selectivity, DiscoverX scanMAX Kinase assay panel (% control)
Type in all cases: binding
[1] = biological target: T1, kinases of the scanMAX Kinase assay panel (Homo sapiens, UniProt P36888, D835V); conditions: FLT3(D835V); 1 uM
T1 construct: purchased DiscoverX Co. (contract measurement) scanMAX Kinase assay panel
T1 sequence (P36888 27-993 D835V): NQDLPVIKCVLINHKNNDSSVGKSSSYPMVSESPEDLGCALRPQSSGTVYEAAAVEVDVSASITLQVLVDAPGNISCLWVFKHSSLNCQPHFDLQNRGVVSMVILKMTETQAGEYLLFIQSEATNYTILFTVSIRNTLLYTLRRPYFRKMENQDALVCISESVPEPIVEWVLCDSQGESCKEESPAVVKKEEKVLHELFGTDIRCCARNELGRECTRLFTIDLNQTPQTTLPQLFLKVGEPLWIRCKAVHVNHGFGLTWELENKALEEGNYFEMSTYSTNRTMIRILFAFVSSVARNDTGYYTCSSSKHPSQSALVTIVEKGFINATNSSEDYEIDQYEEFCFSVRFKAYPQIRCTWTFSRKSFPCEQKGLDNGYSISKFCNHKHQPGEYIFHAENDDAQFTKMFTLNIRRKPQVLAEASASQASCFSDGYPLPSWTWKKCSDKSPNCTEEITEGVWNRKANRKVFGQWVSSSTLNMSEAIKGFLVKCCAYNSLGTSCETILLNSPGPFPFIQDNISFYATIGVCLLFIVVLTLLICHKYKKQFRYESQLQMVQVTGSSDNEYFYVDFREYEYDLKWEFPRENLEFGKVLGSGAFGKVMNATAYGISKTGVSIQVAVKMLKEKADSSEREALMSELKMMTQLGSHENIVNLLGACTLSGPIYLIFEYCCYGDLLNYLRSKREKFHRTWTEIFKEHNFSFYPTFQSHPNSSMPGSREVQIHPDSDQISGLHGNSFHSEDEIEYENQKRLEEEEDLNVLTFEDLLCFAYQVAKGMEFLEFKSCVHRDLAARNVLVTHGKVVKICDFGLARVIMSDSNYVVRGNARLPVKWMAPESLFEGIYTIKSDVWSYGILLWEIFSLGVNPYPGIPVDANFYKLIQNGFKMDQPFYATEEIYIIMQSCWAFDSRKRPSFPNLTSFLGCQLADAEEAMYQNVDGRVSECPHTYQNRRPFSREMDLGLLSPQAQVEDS
Outline: (§1)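 Compounds tested at 1 uM against the scanMAX kinase panel. Signal expressed as % control = (compound − positive control)/(DMSO negative control − positive control) × 100, where positive control = 0% and DMSO = 100%; below 35% counted as activity on that kinase.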

[2] = biological target: T2, kinases of the scanMAX Kinase assay panel (Homo sapiens, UniProt P54760); conditions: EPHB4; 1 uM
T2 construct: purchased DiscoverX Co. (contract measurement) scanMAX Kinase assay panel
T2 sequence (P54760 16-987): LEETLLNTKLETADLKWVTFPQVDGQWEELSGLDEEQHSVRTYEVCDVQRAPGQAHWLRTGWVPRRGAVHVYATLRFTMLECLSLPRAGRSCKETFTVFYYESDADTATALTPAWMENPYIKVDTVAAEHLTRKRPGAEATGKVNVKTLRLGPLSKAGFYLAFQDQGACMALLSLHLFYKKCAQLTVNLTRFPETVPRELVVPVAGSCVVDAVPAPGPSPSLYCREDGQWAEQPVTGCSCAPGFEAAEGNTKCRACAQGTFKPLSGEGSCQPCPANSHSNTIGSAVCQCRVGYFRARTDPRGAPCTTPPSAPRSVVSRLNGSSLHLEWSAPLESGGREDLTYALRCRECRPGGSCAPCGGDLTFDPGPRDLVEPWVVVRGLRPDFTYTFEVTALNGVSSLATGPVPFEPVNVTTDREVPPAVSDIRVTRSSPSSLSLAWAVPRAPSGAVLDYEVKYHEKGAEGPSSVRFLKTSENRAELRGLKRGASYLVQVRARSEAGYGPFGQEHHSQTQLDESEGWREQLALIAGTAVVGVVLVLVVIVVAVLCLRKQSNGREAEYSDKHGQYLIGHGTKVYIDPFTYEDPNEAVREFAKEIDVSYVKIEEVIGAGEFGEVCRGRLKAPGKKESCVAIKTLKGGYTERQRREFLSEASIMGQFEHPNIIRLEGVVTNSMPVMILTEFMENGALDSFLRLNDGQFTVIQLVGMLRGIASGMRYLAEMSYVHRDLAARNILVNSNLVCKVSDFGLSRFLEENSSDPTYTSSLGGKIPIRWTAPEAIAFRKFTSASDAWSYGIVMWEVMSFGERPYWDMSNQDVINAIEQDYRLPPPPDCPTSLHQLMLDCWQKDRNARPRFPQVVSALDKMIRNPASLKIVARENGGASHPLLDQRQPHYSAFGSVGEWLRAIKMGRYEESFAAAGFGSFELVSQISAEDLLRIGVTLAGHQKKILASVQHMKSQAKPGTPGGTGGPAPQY
Outline: as §1

[3] = biological target: T3, kinases of the scanMAX Kinase assay panel (Homo sapiens, UniProt P08581, M1250T); conditions: MET(M1250T); 1 uM
T3 construct: purchased DiscoverX Co. (contract measurement) scanMAX Kinase assay panel
Outline: as §1

[4] = biological target: T4, kinases of the scanMAX Kinase assay panel (Homo sapiens, UniProt Q9UKE5); conditions: kinase TNIK; 1 uM in DMSO
T4 construct: purchased DiscoverX Co. (contract measurement) scanMAX Kinase assay panel
Outline: as §1

T4 sequence (Q9UKE5 whole entry): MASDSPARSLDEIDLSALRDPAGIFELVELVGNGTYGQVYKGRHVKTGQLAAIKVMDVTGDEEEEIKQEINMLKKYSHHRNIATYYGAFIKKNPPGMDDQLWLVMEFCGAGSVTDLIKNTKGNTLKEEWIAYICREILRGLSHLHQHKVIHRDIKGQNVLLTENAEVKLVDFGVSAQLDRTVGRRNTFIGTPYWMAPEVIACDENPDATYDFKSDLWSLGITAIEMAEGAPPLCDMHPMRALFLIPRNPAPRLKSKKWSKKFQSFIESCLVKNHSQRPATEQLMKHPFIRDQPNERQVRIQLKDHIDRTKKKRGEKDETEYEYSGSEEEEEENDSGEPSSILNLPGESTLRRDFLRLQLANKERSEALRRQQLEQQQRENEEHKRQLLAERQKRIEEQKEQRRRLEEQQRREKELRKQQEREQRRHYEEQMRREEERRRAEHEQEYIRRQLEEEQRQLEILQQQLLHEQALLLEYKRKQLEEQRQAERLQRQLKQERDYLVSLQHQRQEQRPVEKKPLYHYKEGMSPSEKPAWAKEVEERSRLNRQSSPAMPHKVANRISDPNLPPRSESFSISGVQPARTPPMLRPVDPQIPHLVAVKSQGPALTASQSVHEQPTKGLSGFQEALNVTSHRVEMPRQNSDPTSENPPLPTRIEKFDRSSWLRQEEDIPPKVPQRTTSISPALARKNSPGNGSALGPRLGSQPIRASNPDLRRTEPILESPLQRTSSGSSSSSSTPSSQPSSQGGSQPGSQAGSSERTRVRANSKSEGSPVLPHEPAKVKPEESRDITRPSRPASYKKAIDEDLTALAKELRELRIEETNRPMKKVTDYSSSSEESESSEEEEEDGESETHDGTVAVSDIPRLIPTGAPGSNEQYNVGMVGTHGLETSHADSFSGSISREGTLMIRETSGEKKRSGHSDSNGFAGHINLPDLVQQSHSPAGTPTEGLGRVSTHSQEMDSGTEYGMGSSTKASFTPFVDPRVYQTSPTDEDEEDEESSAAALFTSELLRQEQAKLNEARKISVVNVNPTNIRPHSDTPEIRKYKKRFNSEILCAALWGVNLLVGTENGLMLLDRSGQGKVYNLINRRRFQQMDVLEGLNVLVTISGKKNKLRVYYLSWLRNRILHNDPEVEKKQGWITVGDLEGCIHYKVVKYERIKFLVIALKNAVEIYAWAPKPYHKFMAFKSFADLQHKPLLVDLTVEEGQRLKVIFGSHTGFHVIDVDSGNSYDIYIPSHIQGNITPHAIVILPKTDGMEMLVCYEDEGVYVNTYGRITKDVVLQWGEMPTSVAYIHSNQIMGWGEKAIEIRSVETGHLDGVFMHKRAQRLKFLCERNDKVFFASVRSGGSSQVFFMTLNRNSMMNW
T3 sequence (P08581 25-1390 M1250T): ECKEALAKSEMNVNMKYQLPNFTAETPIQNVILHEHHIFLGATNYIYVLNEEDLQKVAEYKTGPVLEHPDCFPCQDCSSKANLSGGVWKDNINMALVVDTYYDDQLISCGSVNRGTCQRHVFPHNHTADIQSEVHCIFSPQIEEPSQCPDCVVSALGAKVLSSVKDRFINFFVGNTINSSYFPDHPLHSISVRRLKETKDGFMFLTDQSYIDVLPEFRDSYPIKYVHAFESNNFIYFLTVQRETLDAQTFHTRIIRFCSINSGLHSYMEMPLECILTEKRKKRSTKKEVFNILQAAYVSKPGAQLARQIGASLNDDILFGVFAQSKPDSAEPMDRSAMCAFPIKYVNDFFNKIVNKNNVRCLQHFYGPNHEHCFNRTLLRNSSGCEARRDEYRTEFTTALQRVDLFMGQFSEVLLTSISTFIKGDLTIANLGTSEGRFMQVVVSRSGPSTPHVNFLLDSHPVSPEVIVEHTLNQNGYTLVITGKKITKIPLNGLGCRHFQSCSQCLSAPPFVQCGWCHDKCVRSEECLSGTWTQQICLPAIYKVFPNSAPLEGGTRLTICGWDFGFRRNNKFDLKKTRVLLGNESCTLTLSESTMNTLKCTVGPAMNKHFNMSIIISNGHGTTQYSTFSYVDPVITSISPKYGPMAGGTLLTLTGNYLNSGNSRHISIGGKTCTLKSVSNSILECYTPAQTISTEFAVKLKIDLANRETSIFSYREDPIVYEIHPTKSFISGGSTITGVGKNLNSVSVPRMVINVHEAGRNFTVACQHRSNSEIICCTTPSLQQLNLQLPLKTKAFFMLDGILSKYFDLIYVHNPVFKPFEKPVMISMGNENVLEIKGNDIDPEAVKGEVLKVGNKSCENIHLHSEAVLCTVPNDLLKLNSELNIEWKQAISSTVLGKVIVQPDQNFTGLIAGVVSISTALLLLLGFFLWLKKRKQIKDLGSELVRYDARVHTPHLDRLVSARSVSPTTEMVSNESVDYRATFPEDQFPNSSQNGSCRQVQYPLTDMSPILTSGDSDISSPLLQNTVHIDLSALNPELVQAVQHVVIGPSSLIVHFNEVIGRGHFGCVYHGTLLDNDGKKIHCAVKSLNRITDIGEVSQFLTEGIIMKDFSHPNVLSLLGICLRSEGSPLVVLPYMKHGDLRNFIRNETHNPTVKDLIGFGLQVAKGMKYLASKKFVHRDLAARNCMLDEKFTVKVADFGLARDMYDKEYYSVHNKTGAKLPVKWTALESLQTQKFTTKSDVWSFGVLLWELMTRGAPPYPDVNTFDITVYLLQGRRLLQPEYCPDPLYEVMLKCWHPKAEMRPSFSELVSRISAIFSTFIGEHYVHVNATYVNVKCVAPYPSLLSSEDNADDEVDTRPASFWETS

SMILES | remaining binding at 1 µM [1] | remaining binding at 1 µM [2] | remaining binding at 1 µM [3] | remaining binding at 1 µM [4]
CCNc1nc(Nc2ccc(C(=O)N3CCC(N4CCOCC4)CC3)cc2OC)nc2[nH]cc(C(F)(F)F)c12 [Example 104, (4-((4-(ethylamino)-5-(trifluoromethyl)-7H-pyrrolo[2,3-d]pyrimidine-2-yl)amino)-3-methoxyphenyl)(4-morpholinopiperidine-1-yl)methanone] | 0% | 100% | 100% | 83%
CNc1nc(Nc2ccc(C(=O)N3CCOCC3)cc2OC)nc2[nH]cc(C#N)c12 [Example 1, 2-((2-methoxy-4-(morpholine-4-carbonyl)phenyl)amino)-4-(methylamino)-7H-pyrrolo[2,3-d]pyrimidine-5-carbonitrile] | 58% | 95% | 100% | 95%
CC1(Nc2nc(Nc3cnn([C@H]4CCN(C5COC5)C[C@@H]4F)c3Cl)nc3[nH]cc(C#N)c23)CC1 [Example 52, 2-((5-chloro-1-((3S,4S)-3-fluoro-1-(oxetane-3-yl)piperidine-4-yl)-1H-pyrazole-4-yl)amino)((1-methylcyclopropyl)amino)-7H-pyrrolo[2,3-d]pyrimidine-5-carbonitrile] | 0% | 48% | 28% | 3.5%
